Values after ≈ are worked out from the molar mass of the structure shown. Where two headings read alike, the source gives them in different places.
What was measured:
Assay in all cases: Minimum Inhibitory Concentration (MIC), agar dilution, standard strains
S. epidermidis R005 = type: cell-based; settings: Mueller-Hinton agar, 37° C., 20 hours; for MIC: Staphylococcus epidermidis, R005, read-out: Minimum Inhibitory Concentration, S. epidermidis R005
Protocol: (§1) The effectiveness of the compound according to the present invention was determined by obtaining Minimum Inhibitory Concentration (MIC) of the compounds prepared by the above examples (Compounds I-1 to I-41) and vancomycin, which is the known compound having a potent activity against gram-positive strains, as the control drug against the standard strains. Specifically, Minimum Inhibitory Concentration was obtained by diluting the test compound according to a double dilution method, dispersing them in Mueller-Hinton agar medium, inoculating each of the test strain having 10^7 cfu (colony forming unit) per ml in an amount of 2 μl to the medium and then incubating them at 37° C. for 20 hours. From the result of Minimum Inhibitory Concentration test, it can be seen that the compound according to the present invention has a good activity against major pathogenic microorganisms, which cause hospital infection, including MRSA strains.

E. faecalis EFS004 = type: cell-based; settings: Enterococcus faecalis, EFS004; Table 2; Mueller-Hinton agar, 37° C., 20 hours; read-out: Minimum Inhibitory Concentration, E. faecalis EFS004
Protocol: as §1

[1] = test system: Staphylococcus aureus giorgio; type: cell-based; settings: Mueller-Hinton agar, 37° C., 20 hours; for MIC: Staphylococcus aureus, read-out: Minimum Inhibitory Concentration, Staphylococcus aureus giorgio
Protocol: as §1

S. aureus 77 = type: cell-based, Staphylococcus aureus; settings: Mueller-Hinton agar, 37° C., 20 hours; for MIC: Staphylococcus aureus, 77, read-out: Minimum Inhibitory Concentration, S. aureus 77
Protocol: as §1

S. aureus K311 = type: cell-based, Staphylococcus aureus; settings: Staphylococcus aureus, K311; Table 2; Mueller-Hinton agar, 37° C., 20 hours; read-out: Minimum Inhibitory Concentration, S. aureus K311
Protocol: as §1

E. faecalis L239 = type: cell-based; settings: Table 1, Mueller-Hinton agar, 37° C., 20 hours; for MIC: Enterococcus faecalis, L239, read-out: Minimum Inhibitory Concentration, E. faecalis L239
Protocol: as §1

S. aureus 241 = type: cell-based, Staphylococcus aureus; settings: Table 1, Mueller-Hinton agar, 37° C., 20 hours; for MIC: Staphylococcus aureus, 241, read-out: Minimum Inhibitory Concentration, S. aureus 241
Protocol: as §1

Compound | Minimum Inhibitory Concentration, S. epidermidis R005 (S. epidermidis R005; Table 1) | Minimum Inhibitory Concentration, Staphylococcus aureus giorgio ([1]; Table 1) | Minimum Inhibitory Concentration, E. faecalis L239 (E. faecalis L239) | Minimum Inhibitory Concentration, S. aureus 241 (S. aureus 241) | Minimum Inhibitory Concentration, S. aureus 77 (S. aureus 77; Table 1) | also measured
Nc1cc(SC/C=C/C2=C(C(=O)O)N3C(=O)[C@@H](NC(=O)CSc4cc(Cl)nc(Cl)c4)[C@H]3SC2)nc(N)n1 [Compound I-11, (6R,7R)-3-{(E)-3-[(2,6-diamino-4-pyrimidinyl)sulfanyl]-1-propenyl}-7-( {2-[(2,6-dichloro-4-pyridinyl)sulfanyl]acetyl}amino)-8-oxo-5-thia-1-azabicyclo[4.2.0]oct-2-ene-2-carboxylic acid] |  |  |  |  |  | MIC (S. epidermidis R005; Table 2): 0.5 µg/mL (≈ 0.833 µM); MIC (E. faecalis EFS004): 2 µg/mL (≈ 3.33 µM); MIC ([1]; Table 2): 0.016 µg/mL (≈ 0.0266 µM); MIC (S. aureus 77; Table 2): 0.25 µg/mL (≈ 0.416 µM); MIC (S. aureus K311): 0.5 µg/mL (≈ 0.833 µM)
O=C(CSc1cc(Cl)nc(Cl)c1)N[C@@H]1C(=O)N2C(C(=O)O)=C(/C=C/CSc3nc(O)cc(NCCO)n3)CS[C@H]12 [Compound I-15, (6R,7R)-7-({2-[(2,6-dichloro-4-pyridinyl)sulfanyl]acetyl}amino)-3-[(E)-3-({4-hydroxy-6-[(2-hydroxyethyl)amino]-2-pyrimidinyl]sulfanyl}-1-propenyl]-8-oxo-5-thia-1-azabicyclo[4.2.0]oct-2-ene-2-carboxylic acid] |  |  |  |  |  | MIC (S. epidermidis R005; Table 2): 0.5 µg/mL (≈ 0.775 µM); MIC (E. faecalis EFS004): 1 µg/mL (≈ 1.55 µM); MIC ([1]; Table 2): 0.031 µg/mL (≈ 0.048 µM); MIC (S. aureus 77; Table 2): 0.5 µg/mL (≈ 0.775 µM); MIC (S. aureus K311): 0.5 µg/mL (≈ 0.775 µM)
Nc1nc[n+](C/C=C/C2=C(C(=O)O)N3C(=O)[C@@H](NC(=O)CSc4cc(Cl)ccc4Cl)[C@H]3SC2)c(N)c1N [Compound I-35] | 0.25 µg/mL | 0.016 µg/mL | 0.5 µg/mL | 2 µg/mL | 0.25 µg/mL | 
O=C(CSc1cc(Cl)ccc1Cl)N[C@@H]1C(=O)N2C(C(=O)O)=C(/C=C/CSc3ncnc4[nH]ncc34)CS[C@H]12 [Compound I-27] | 0.13 µg/mL | <0.008 µg/mL | 0.13 µg/mL | 2 µg/mL | 0.13 µg/mL | 
Nc1nc(SC/C=C/C2=C(C(=O)O)N3C(=O)[C@@H](NC(=O)CSc4cc(Cl)ccc4Cl)[C@H]3SC2)c2c([n+]1N)CCC2 [Compound I-21] | 0.063 µg/mL | <0.008 µg/mL | 0.25 µg/mL | 1 µg/mL | 0.063 µg/mL | 
Nc1cc(SC/C=C/C2=C(C(=O)O)N3C(=O)[C@@H](NC(=O)CNc4cc(Cl)ccc4Cl)[C@H]3SC2)nc(N)n1 [Compound I-5] | 0.5 µg/mL | 0.031 µg/mL | 1 µg/mL | 16 µg/mL | 0.5 µg/mL | 
Cc1nc(N)cc(N(C)C)[n+]1C/C=C/C1=C(C(=O)O)N2C(=O)[C@@H](NC(=O)CSc3cc(Cl)ccc3Cl)[C@H]2SC1 [Compound I-37, 4-amino-1-{(E)-3-[(6R,7R)-2-carboxy-7-({2-[(2,5-dichlorophenyl)sulfanyl]acetyl}amino)-8-oxo-5-thia-1-azabicyclo[4.2.0]oct-2-en-3-yl]-2-propenyl}-6-(dimethylamino)-2-methylpyrimidin-1-ium] | 0.25 µg/mL | 0.016 µg/mL | 0.5 µg/mL | 4 µg/mL | 0.25 µg/mL | 
Nc1nc(SC/C=C/C2=C(C(=O)O)N3C(=O)[C@@H](NC(=O)CSc4cc(Cl)ccc4Cl)[C@H]3SC2)nc2c1CCC2 [Compound I-20, (6R,7R)-3-{(E)-3-[(4-amino-6,7-dihydro-5H-cyclopenta[d]pyrimidin-2-yl)sulfanyl]-1-propenyl}-7-({2-[(2,5-dichlorophenyl)sulfanyl]acetyl}amino)-8-oxo-5-thia-1-azabicyclo[4.2.0]oct-2-ene-2-carboxylic acid] |  |  |  |  |  | MIC (S. epidermidis R005; Table 1): 2 µg/mL (≈ 3.2 µM); MIC ([1]; Table 1): 0.063 µg/mL (≈ 0.101 µM); MIC (E. faecalis L239): 2 µg/mL (≈ 3.2 µM); MIC (S. aureus 241): 32 µg/mL (≈ 51.2 µM); MIC (S. aureus 77; Table 1): 2 µg/mL (≈ 3.2 µM)
Nc1nc(O)cc(SC/C=C/C2=C(C(=O)O)N3C(=O)[C@@H](NC(=O)CSc4cc(Cl)ccc4Cl)[C@H]3SC2)n1 [Compound I-1, (6R,7R)-3-{(E)-3-[(2-amino-6-hydroxy-4-pyrimidinyl)sulfanyl]-1-propenyl}-7-({2-[(2,5-dichlorophenyl)sulfanyl]acetyl}amino)-8-oxo-5-thia-1-azabicyclo[4.2.0]oct-2-ene-2-carboxylic acid] |  |  |  |  |  | MIC (S. epidermidis R005; Table 1): 0.13 µg/mL (≈ 0.216 µM); MIC ([1]; Table 1): < 0.008 µg/mL; MIC (E. faecalis L239): 0.25 µg/mL (≈ 0.416 µM); MIC (S. aureus 241): 4 µg/mL (≈ 6.66 µM); MIC (S. aureus 77; Table 1): 0.25 µg/mL (≈ 0.416 µM)
Nc1cc[n+](C/C=C/C2=C(C(=O)O)N3C(=O)[C@@H](NC(=O)CSc4cc(Cl)ccc4Cl)[C@H]3SC2)cn1 [Compound I-2, 4-amino-1-{(E)-3-[(6R,7R)-2-carboxy-7-({2-[(2,5-dichlorophenyl)sulfanyl]acetyl}amino)-8-oxo-5-thia-1-azabicyclo[4.2.0]oct-2-en-3-yl]-2-propenyl}pyrimidin-1-ium] | 0.25 µg/mL | <0.008 µg/mL | 1 µg/mL | 4 µg/mL | 0.25 µg/mL | 
Cc1c(N)nc[n+](C/C=C/C2=C(C(=O)O)N3C(=O)[C@@H](NC(=O)CSc4cc(Cl)ccc4Cl)[C@H]3SC2)c1N [Compound I-31] | 0.25 µg/mL | 0.016 µg/mL | 2 µg/mL | 8 µg/mL | 1 µg/mL | 
Nc1cc[n+](N)c(SCC2=C(C(=O)O)N3C(=O)[C@@H](NC(=O)CSc4cc(Cl)ccc4Cl)[C@H]3SC2)n1 [Compound I-6, 1,4-diamino-2-({[(6R,7R)-2-carboxy-7-({2-[(2,5-dichlorophenyl)sulfanyl]acetyl}amino)-8-oxo-5-thia-1-azabicyclo[4.2.0]oct-2-en-3-yl]methyl}sulfanyl)pyrimidin-1-ium] | 0.063 µg/mL | <0.008 µg/mL | 4 µg/mL | 4 µg/mL | 0.031 µg/mL | 
Nc1nc[n+](C/C=C/C2=C(C(=O)O)N3C(=O)[C@@H](NC(=O)CSc4cc(Cl)ccc4Cl)[C@H]3SC2)c2c1CCC2 [Compound I-34] | 0.13 µg/mL | <0.008 µg/mL | 1 µg/mL | 4 µg/mL | 0.5 µg/mL | 
Nc1cc(N)[n+](C/C=C/C2=C(C(=O)O)N3C(=O)[C@@H](NC(=O)CSc4cc(Cl)ccc4Cl)[C@H]3SC2)cn1 [Compound I-36] | 0.063 µg/mL | <0.008 µg/mL | 0.25 µg/mL | 1 µg/mL | 0.13 µg/mL | 

Source: US20030162762A1, “Novel cephalosporin compounds and process for preparing the same” (priority 2000, published 2003)
